Legend:
[1] = test system: Ebola virus; conditions: mouse, in vivo, 150 mg/kg; cited from earlier work
[2] = test system: Ebola virus (EBOV); conditions: human, in vivo

SMILES: NC(=O)c1nc(F)cnc1O [Favipiravir, 6-fluoro-3-hydroxy-2-pyrazinecarboxamide]
- Biochemical parameters of disease severity [1]: reduced biochemical parameters of disease severity
- Survival [1]: 100%
- Virus clearance [1]: rapid virus clearance
- Effect on survival, patients with CT<20 [2]: no indication that favipiravir monotherapy improved survival
- Mortality (participants died), baseline CT <20 [2]: 85%
- Mortality (participants died), baseline CT ≥20 [2]: 15%
- Mortality in patients with abnormal baseline creatinine values and BCT<20 [2]: 100%
- Mortality in patients with abnormal baseline creatinine values and BCT≥20 [2]: 7%
- Mortality rate versus pre-trial figures, patients with CT≥20 [2]: lower mortality rate compared to pre-trial figures
- Mortality (participants died), overall ([2]; po): 48%
- Tolerance of the drug ([2]; po): well tolerated

— US10098879B2 (priority 2015, dated 2018)
